The values below come from patent US20230044787A1, “TRICYCLE DIHYDROIMIDAZOPYRIMIDONE DERIVATIVE, PREPARATION METHOD THEREOF, PHARMACEUTICAL COMPOSITION AND USE THEREOF” (priority 2019, published 2023).

This assay addresses T1, Lp-PLA2 (Homo sapiens, UniProt Q13093).
T1 construct: aliquoted and thawed 40 μL of pooled human plasma was previously added; from tissue; host or cells: pooled human plasma
T1 sequence (Q13093 22-441): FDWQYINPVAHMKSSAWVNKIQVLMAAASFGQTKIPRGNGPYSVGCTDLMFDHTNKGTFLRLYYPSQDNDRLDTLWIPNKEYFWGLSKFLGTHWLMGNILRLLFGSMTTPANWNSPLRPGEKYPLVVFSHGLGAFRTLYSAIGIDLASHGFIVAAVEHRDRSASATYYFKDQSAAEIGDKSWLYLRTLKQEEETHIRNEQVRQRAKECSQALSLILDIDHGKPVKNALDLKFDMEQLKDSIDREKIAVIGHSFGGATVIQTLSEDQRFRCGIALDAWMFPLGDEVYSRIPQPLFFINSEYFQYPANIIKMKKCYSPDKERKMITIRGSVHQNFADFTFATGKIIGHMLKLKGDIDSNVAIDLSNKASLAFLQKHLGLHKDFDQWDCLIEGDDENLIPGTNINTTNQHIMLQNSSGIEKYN
Description: Lipoprotein-associated phospholipase A2 (Lp-PLA2) human plasma assay (Thio-PAF assay). As to conditions: Lp-PLA2 human plasma assay (Thio-PAF), pooled human plasma, 30-min pre-incubation at room temperature. It is filed as biochemical.
For `O=C(c1ccccc1)N1C[C@]23C[C@H]1CN2c1cc(OCc2ccc(Oc4ccnc(C(F)(F)F)c4)c(F)c2)nc(=O)n1C3` [Example 174], the IC50 came to 5 nM. `COc1c(NCc2ccc(F)c(F)c2)nc(=O)n2c1N1C[C@@H]3C[C@]1(CO3)C2` [Example 175, (3S,11aR)-7-((3,4-Difluorobenzyl)amino)-6-methoxy-3,4-dihydro-1H,9H,11H-3,11a-methanopyrimido[6′, 1′:2, 3]imidazo[5,1-c] [1, 4]oxazin-9-one]: the IC50 is 168 nM.

In the case of `O=c1nc(OCc2cc(F)c(Oc3ccnc(C(F)F)c3)c(F)c2)cc2n1CC13CC(CN21)C3` [Example 176, 3-((4-((2-(difluoromethyl)pyridin-4-yl)oxy)-3,5-difluorobenzyl)oxy)-7,8-dihydro-1H,6H, 9H-7,8a-methanopyrrolo[1′,2′:3,4]imidazo [1,2-c]pyrimidin-1-one], the IC50 worked out at 13.9 nM. Next, `O=c1nc(OCc2ccc(Oc3ccnc(C(F)(F)F)c3)c(F)c2)cc2n1C[C@@]13C[C@@H](CN21)N(C1CCC1)C3` [Example 177, (3S,11aS)-2-cyclobutyl-7-((3-fluoro-4-((2-(trifluoromethyl)pyridin-4-yl)oxy)benzyl)oxy)-1,2,3,4-tetrahydro-9H,11H-3,11a-methano-pyrazino[l′,2′:3,4]imidazo[1,2-c]pyrimidin-9-one]: 5.5 nM; `O=c1nc(OCc2ccc(Oc3ccnc(C(F)(F)F)c3)c(F)c2)cc2n1C[C@@]13C[C@@H](CN21)N(Cc1ccccc1)C3` [Example 178, (3S,11aS)-2-benzyl-7-((3-fluoro-4-((2-(tri-fluoromethyl)pyridin-4-yl)oxy)benzyl)oxy)-1,2,3,4-tetrahydro-9H,11H-3,11a-methano-pyrazino[1′,2′:3,4]imidazo[1,2-c]pyrimidin-9-one]: 6.2 nM. Take `O=c1nc(OCc2cc(F)c(Oc3cccc(C(F)F)c3)c(F)c2)cc2n1C[C@]13CO[C@H](CN21)C3` [Example 179]: the IC50 came to 4.1 nM. Next, `COc1c(N(C)Cc2ccc(F)c(F)c2)nc(=O)n2c1N1C[C@@H]3C[C@]1(CO3)C2` [Example 180]: 87.2 nM. Next, `O=c1nc(OCCc2ccc(Oc3cccc(C(F)(F)F)c3)c(F)c2)cc2n1C[C@]13CO[C@H](CN21)C3` [Example 181, (3S,11aR)-7-(3-fluoro-4-(3-(trifluoromethyl)phenoxy)phenethoxy)-3,4-dihydro-1H,9H, 11H-3,11a-methanopyrimido[6′,1′:2,3]imidazo [5,1-c][1,4]oxazin-9-one]: 6.7 nM; `O=c1nc(OCCc2ccc(Oc3cccc(C(F)(F)F)c3)c(F)c2)cc2n1CC13CC(CN21)C3` [Example 182, 3-(3-fluoro-4-(3-(trifluoromethyl)phenoxy)phenethoxy)-7,8-dihydro-1H,6H,9H-7,8a-methanopyrrolo[1′,2′:3,4]imidazo[1,2-c] pyrimidin-1-one]: 9.4 nM. Next, `COc1c(OCCc2ccc(Oc3cccc(C(F)(F)F)c3)c(F)c2)nc(=O)n2c1N1CC3CC1(C3)C2` [Example 183, 3-(3-fluoro-4-(3-(trifluoromethyl)phenoxy)phenethoxy)-4-methoxy-7,8-dihydro-1H,6H, 9H-7,8a-methanopyrrolo[1′,2′:3,4]imidazo [1,2-c]pyrimidin-1-one]: 13.8 nM.

As to `COc1c(OCCc2ccc(Oc3cccc(C(F)(F)F)c3)cc2)nc(=O)n2c1N1CC3CC1(C3)C2` [Example 184, 4-methoxy-3-(4-(3-(trifluoromethyl)phenoxy)phenethoxy)-7,8-dihydro-1H,6H,9H-7,8a-methanopyrrolo[1′,2′:3,4]imidazo[1,2-c] pyrimidin-1-one], the IC50 amounted to 23.8 nM. Under `O=c1nc(OCCc2ccc(Oc3ccc(Cl)c(C(F)(F)F)c3)c(F)c2)cc2n1C[C@]13CO[C@H](CN21)C3` [Example 185] stands 4.7 nM. Under `O=c1nc(OCCc2ccc(Oc3ccc(Cl)c(C(F)(F)F)c3)c(F)c2)cc2n1CC13CC(CN21)C3` [Example 186, 3-(4-(4-chloro-3-(trifluoromethyl)phenoxy)-3-fluorophenethoxy)-7,8-dihydro-1H,6H,9H-7,8a-methanopyrrolo[1′,2′:3,4]imidazo[1,2-c] pyrimidin-1-one] stands 7.4 nM; under `COc1c(OCCc2ccc(Oc3ccc(Cl)c(C(F)(F)F)c3)c(F)c2)nc(=O)n2c1N1CC3CC1(C3)C2` [Example 187, 3-(4-(4-chloro-3-(trifluoromethyl)phenoxy)-3-fluorophenethoxy)-4-methoxy-7,8-dihydro-1H,6H,9H-7,8a-methanopyrrolo[1′,2′:3,4] imidazo[1,2-c]pyrimidin-1-one], 7.8 nM.

In the case of `COc1c(OCCc2ccc(Oc3ccnc(C(F)(F)F)c3)cc2)nc(=O)n2c1N1CC3CC1(C3)C2` [Example 188], the IC50 was determined as 9.2 nM. Next, `COc1c(OCCc2cc(F)c(Oc3ccnc(C(F)(F)F)c3)c(F)c2)nc(=O)n2c1N1CC3CC1(C3)C2` [Example 189, 3-(3,5-difluoro-4-((2-(trifluoromethyl)pyridin-4-yl)oxy)phenethoxy)-4-methoxy-7,8-dihydro-1H,6H,9H-7,8a-methanopyrrolo[1′,2′:3,4] imidazo[1,2-c] pyrimidin-1-one]: 8.6 nM; `O=c1nc(OCCc2ccc(Oc3ccnc(C(F)(F)F)c3)c(F)c2)cc2n1CC13CC(CN21)C3` [Example 190, 3-(3-fluoro-4-((2-(trifluoromethyl)pyridin-4-yl)oxy)phenethoxy)-7,8-dihydro-1H,6H,9H-7,8a-methanopyrrolo[1′,2′:3,4]imidazo[1,2-c] pyrimidin-1-one]: 5.9 nM; `COc1c(OCCc2ccc(Oc3ccnc(C(F)(F)F)c3)c(F)c2)nc(=O)n2c1N1CC3CC1(C3)C2` [Example 191, 3-(3-fluoro-4-((2-(trifluoromethyl)pyridin-4-yl)oxy)phenethoxy)-4-methoxy-7,8-dihydro-1H,6H,9H-7,8a-methanopyrrolo[1′,2′:3,4] imidazo[1,2-c]pyrimidin-1-one]: 6.2 nM.

For the molecule `O=c1nc(OCc2ccc(Oc3cccc(C(F)(F)F)c3)c(F)c2)cc2n1C[C@]13CO[C@H](CN21)C3` [Example 192], the IC50 was 6.3 nM. `N#Cc1cc(COc2cc3n(c(=O)n2)C[C@]24CO[C@H](CN32)C4)ccc1F` [Example 193]: the IC50 was found to be 5.2 nM.

`O=c1nc(OCc2cc(F)c(Oc3cccc(C(F)(F)F)c3)c(F)c2)cc2n1C[C@]13CO[C@H](CN21)C3` [Example 194, (3S,11aR)-7-((3,5-difluoro-4-(3-(trifluoro-methyl)phenoxy)benzyl)oxy)-3,4-dihydro-1H,9H,11H-3,11a-methanopyrimido[6′,1′:2,3] imidazo[5,1-c][1,4]oxazin-9-one]: the IC50 came out at 4 nM. Under `O=c1nc(OCCc2ccc(F)c(F)c2)cc2n1C[C@]13CO[C@H](CN21)C3` [Example 195, (3S,11aR)-7-(3,4-difluorophenethoxy)-3,4-dihydro-1H,9H,11H-3,11a-methano-pyrimido[6′,1′:2,3]imidazo[5,1-c][l,4]oxazin-9-one] stands 62.7 nM; under `O=c1nc(OCc2ccc(Oc3ccnc(C(F)F)c3)c(F)c2)cc2n1CC13CCC(CC1)N23` [Example 196], 15.4 nM.

For orientation: IC50 means the midpoint of a concentration-inhibition curve.
